In patent US20080119408A1, “PTH FORMULATIONS FOR INTRANASAL DELIVERY” (NASTECH PHARMACEUTICAL COMPANY INC., priority 2006, published 2008):
Like-named read-outs stand apart in the source and are kept apart here. Ends that are not written are not given here.

How the values were obtained:
MatTek in vitro system = assay: Chlorobutanol permeation study of API formulations (PTH, Calcitonin), MatTek in vitro system, ELISA; type: cell-based; conditions: CB 0-5 mg/mL
Experimental: Chlorobutanol (CB) was added to API formulations (PTH and Calcitonin) to test permeation in the MatTek in vitro system. CB was tested at varying concentrations (0, 1.25, 2.5, 3.75 and 5 mg/mL) in 10 mM citrate buffer, pH 4.0 and adjusted for a final target osmolality of 220 mOsm with sorbitol. Calcitonin and PTH were added at 2 mg/mL in each of the respective control or test formulations (n=6 insert per formulation). 1 mL of each formulation was placed into silanized 3 cc vials. A 0.1 mL volume of a 20× stock of one of the API compounds was added to 0.9 mL of 1.1× concentrated diluent form of each of the CB formulations to make the unique formulations.

[1] = anesthetized rats, cited from earlier work
[2] = test system: EpiAirway Tissue Model (normal, human-derived tracheal/bronchial epithelial cells); assay: Transepithelial electrical resistance (TER), MatTek cell model (Examples 1-2); type: cell-based; conditions: 1-h incubation, apical application
Experimental: The effect of various permeation enhancers on PTH formulations was measured in a MatTek cell model (MatTek, Corp. Ashland, Mass.). Three permeation enhancers (EDTA, ethanol, and polysorbate 80 (Tween 80)) were evaluated individually and in combination with one another. Sorbitol was used as a tonicifiers to adjust the osmolality of formulations to 220 mOsm/kg whenever applicable. The formulation pH was adjusted to ˜4.0. The permeation enhancer combination of 45 mg/ml Me-β-CD, 1 mg/ml DDPC, and 1 mg/ml EDTA at pH 4.5 served as the positive control. The formulation containing sorbitol only was used as the negative control. Each formulation was evaluated in the presence and absence of preservative. […]
Each tissue insert was placed in an individual well containing 1 ml media. […] Transepithelial electrical resistance (TER) was measured before and after the 1-h incubation. Following the incubation, the cell inserts were analyzed for cell viability via the mitochondrial dehydrogenase (MDH) assay.
TER measurements were accomplished using the Endohm-12 Tissue Resistance Measurement Chamber connected to the EVOM Epithelial Voltammeter (World Precision Instruments, Sarasota, Fla.) with the electrode leads. […] The background resistance was measured with 1.5 ml Media in the Endohm tissue chamber and 300 μl Media in the blank insert. […] Resistance was expressed as (resistance measured−blank)×0.6 cm^2. […]

[3] = test system: EpiAirway Tissue Model (normal, human-derived tracheal/bronchial epithelial cells); assay: Cell viability, MTT assay (Example 3); type: cell-based; conditions: after 1-h incubation
Experimental: (§1) Each tissue insert was placed in an individual well containing 1 ml media. On the apical surface of the inserts, 100 μl of test formulation was applied, and the samples were shaken for 1 h at 37° C. The underlying culture media samples were taken at 20, 40, and 60 minutes and stored at 4° C. for up to 48 hours for lactate dehydrogenase (LDH, cytotoxicity) and sample penetration (PTH HPLC evaluations). The 60-min samples were used for the lactate dehydrogenase (LDH, cytotoxicity) assay. Transepithelial electrical resistance (TER) was measured before and after the 1-h incubation. Following the incubation, the cell inserts were analyzed for cell viability via the mitochondrial dehydrogenase (MDH) assay.
Cell viability was assessed using the MTT assay (MTT-100, MatTek kit). Thawed and diluted MTT concentrate was pipetted (300 μl) into a 24-well plate. Tissue inserts were gently dried, placed into the plate wells, and incubated at 37° C. for 3 hours. After incubation, each insert was removed from the plate, blotted gently, and placed into a 24-well extraction plate. The cell culture inserts were immersed in 2.0 ml of the extractant solution per well (to completely cover the sample). The extraction plate was covered and sealed to reduce evaporation of extractant. […] The optical density of the samples was measured at 550 nm on a plate reader.

[4] = test system: EpiAirway Tissue Model (normal, human-derived tracheal/bronchial epithelial cells); assay: Cytotoxicity, LDH assay (Example 3); type: cell-based; conditions: 60-min samples
Experimental: as §1
The amount of cell death was assayed by measuring the loss of lactate dehydrogenase (LDH) from the cells using a CytoTox 96 Cytoxicity Assay Kit (Promega Corp., Madison, Wis.). LDH analysis of the apical media was evaluated. The appropriate amount of media was added to the apical surface in order to total 250 μL, taking into consideration the initial sample loading volume. The inserts was shaken for 5 minutes. 150 μL of the apical media was removed to eppendorf tubes and centrifuged at 10000 rpm for 3 minutes. […] Following incubation, 50 μl of stop solution was added to each well and the plates read on an optical density plate reader at 490 nm.

[5] = 13-week intranasal toxicity and toxicokinetics in rats; type: in vivo, rat; conditions: Crl:CD(SD), rat, in vivo, sc, 25 μg/kg/day, female rats, administered by injection (subcutaneous)
Experimental: (§2) Toxicity and toxicokinetics of PTH1-34 formulations were evaluated in male and female Crl:CD(SD) rats. PTH1-34 (synthetic form) was administered once daily via intranasal instillation to rats for at least 13 weeks. For comparison, one group received commercially available recombinant PTH1-34 via subcutaneous injection. Assessment of toxicity was based on mortality, clinical observations, ophthalmic examinations, body weights, food consumption, clinical and anatomic pathology, and toxicokinetic evaluations. Two synthetic PTH1-34 formulations were used in the study, PTH-072-1 and PTH-074 at low and high doses (formulations are shown in Table 22).
(§3) Doses in rats were determined for body weight, body surface area, and nasal surface area. Representative concentrations of PTH1-34 for clinical studies were considered to be 1.5 mg/mL and 3.0 mg/mL (and a dose volume of 100 μL). For the lower concentration, a 70 kg human would receive a dose of 2.1 μg/kg based on body weight. At the higher dose a human would receive a dose of 4.3 μg/kg based on body weight.

Crl:CD(SD) rats = assay: as above; type: in vivo, rat
Experimental: as §2, §3

[6] = 13-week intranasal toxicity and toxicokinetics in dogs; type: in vivo; conditions: both sexes, beagle, dog, in vivo, sc, 6 μg/kg/day; dogs, subcutaneous injection; read-out: Tmax for PTH1-34
Experimental: (§4) Toxicity and toxiokinetics of PTH1-34 was studied after administration of PTH1-34 once daily by intranasal instillation to dogs for at least 13 weeks. One additional group received recombinant PTH1-34 by subcutaneous injection for comparison.
(§5) Male and female beagles were assigned among six study groups. Animals assigned to groups 1 through 5 received an intranasal installation of a negative control (0.9% Sodium Chloride for Injection, USP), 40 or 80 μg/kg of body weight/day (μg/kg/day) PTH1-34 (synthetic form) in the PTH-072 formulation (Example 10, Table 22), or 80 or 200 μg/kg/day PTH1-34 (synthetic form) in the PTH-074-1 formulation (Example 10, Table 22).
(§6) Results were collected for mortality, clinical signs, gross nasal passage observations, ophthalmic findings, electrocardiogram measurements, blood pressure and heart rate differences, body weights, food consumption, clinical and anatomic pathology, and toxicokinetic evaluations. All animals in the study survived to scheduled necropsy. […] The nasal cavity was sectioned such that meaningful regions of the cavity were represented, and the soft (e.g., epithelial lining) or hard tissues (e.g., bone and cartilage based structures) of the nasal cavity were examined.

beagles = assay: as above; type: in vivo
Experimental: as §4, §5, §6

Calcitonin (CGNLSTCMLGTYTQDFNKFHTFPQTAIGVGAP; ends and bridges not checked; cysteine pairing not given here; UniProt P01258 85-116, looked up) [peptide API tested for CB permeation enhancement]
effect of addition of CB on permeation of the API (MatTek in vitro system): failed to enhance permeation

human growth hormone: protein whose nasal bioavailability in rats was reported raised by N-acetyl-L-cysteine
nasal bioavailability of human growth hormone ([1]; with N-acetyl-L-cysteine): 12.2% | nasal bioavailability of human growth hormone ([1]; without N-acetyl-L-cysteine): 7.5%

Triton X
TER reduction [2]: significant TER reduction | cell viability (MTT) [3]: significant reduction of cell viability | cytotoxicity (LDH) [4]: significant cytotoxicity

CC[C@H](C)[C@H](NC(=O)[C@H](CCC(=O)O)NC(=O)[C@H](CO)NC(=O)[C@@H](NC(=O)[C@@H](N)CO)C(C)C)C(=O)N[C@@H](CCC(N)=O)C(=O)N[C@@H](CC(C)C)C(=O)N[C@@H](CCSC)C(=O)N[C@@H](Cc1cnc[nH]1)C(=O)N[C@@H](CC(N)=O)C(=O)N[C@@H](CC(C)C)C(=O)NCC(=O)N[C@@H](CCCCN)C(=O)N[C@@H](Cc1cnc[nH]1)C(=O)N[C@@H](CC(C)C)C(=O)N[C@@H](CC(N)=O)C(=O)N[C@@H](CO)C(=O)N[C@@H](CCSC)C(=O)N[C@@H](CCC(=O)O)C(=O)N[C@@H](CCCN=C(N)N)C(=O)N[C@H](C(=O)N[C@@H](CCC(=O)O)C(=O)N[C@@H](Cc1c[nH]c2ccccc12)C(=O)N[C@@H](CC(C)C)C(=O)N[C@@H](CCCN=C(N)N)C(=O)N[C@@H](CCCCN)C(=O)N[C@@H](CCCCN)C(=O)N[C@@H](CC(C)C)C(=O)N[C@@H](CCC(N)=O)C(=O)N[C@@H](CC(=O)O)C(=O)N[C@H](C(=O)N[C@@H](Cc1cnc[nH]1)C(=O)N[C@@H](CC(N)=O)C(=O)N[C@@H](Cc1ccccc1)C(=O)O)C(C)C)C(C)C [PTH1-34, teriparatide]
Cmax [5]: 7.72 to 12.2 ng/mL | Tmax [5]: 5 min | half-life ([5]; read-out: t1/2 for PTH1-34): 15 to 23 min | trabecular bone in femur and sternum (Crl:CD(SD) rats; female rats, 25 μg/kg/day SQ, 200 μg/kg/day PTH-072-1, 500 μg/kg/day PTH-074-1 intranasally): thickened trabecular bone | changes in nasal turbinate tissues (Crl:CD(SD) rats; rats, 13 weeks intranasal): No changes considered to be attributable to the intranasal administration of PTH1-34 were observed | clinical signs, ophthalmic observations, body weight, food consumption (Crl:CD(SD) rats; rats, 13 weeks, regardless of route, dose level or formulation): No PTH1-34 related clinical signs, ophthalmic observations, body weight changes, or food consumption changes were observed | Tmax [6]: 13 to 26 min | histologic changes in nasal tissues (beagles; dog, in vivo): no histologic changes in nasal tissues | trabecular bone in femur and sternum (beagles; dogs dosed subcutaneously or intranasally at the high dose): minimally thickened trabecular bone | AUClast greater in the dog than in humans at representative doses (beagles; dogs vs humans): ≥ 10 fold | Cmax greater in the dog than in humans at representative doses (beagles; dogs vs humans): at least 7 fold | clinical signs, ophthalmic findings, ECG, blood pressure, heart rate, body weights, food consumption (beagles; dogs, 13 weeks): No PTH1-34 related clinical signs, ophthalmic findings, electrocardiogram differences, blood pressure and heart rate differences, body weights, or food consumption changes were noted | effect of addition of CB on permeation of the API (MatTek in vitro system): enhanced permeation
